This is an account of results in ChEMBL document CHEMBL1201862, “PubChem BioAssay data set” (2004).

Test [1] addresses T1, Mu-type opioid receptor (Homo sapiens, UniProt P35372). Put plainly: SAR Analysis of Agonists of the MOR Receptor using an Image-Based Assay - Set 3. [Related pubchem assays (depositor defined):AID1777, AID1785, AID1786, AID1966, AID2133, AID2136, AID2284, AID2285, AID2352]. The test is classed as functional.
The target of test [2] is T2, Delta-type opioid receptor (Homo sapiens, UniProt P41143). Put plainly: SAR Analysis of Agonists of the DOR Receptor using an Image-Based Assay - Set 3. [Related pubchem assays (depositor defined):AID1777, AID1786]. The test is classed as functional.
In test [3] the target is T3, Kappa-type opioid receptor (Homo sapiens, UniProt P41145). In words: SAR analysis of small molecule agonists of the kappa opioid receptor via a luminescent beta-arrestin assay - Set 3. [Related pubchem assays (depositor defined):AID1777, AID1785, AID1786, AID1966, AID2133, AID2136, AID2284, AID2500]. The test is classed as functional.
Test [4] has as its target T2, Delta-type opioid receptor. In words: HTS Image-Based Screen for Antagonists of the DOR Receptor. [Related pubchem assays (depositor defined):AID1777, AID1785, AID1786, AID2133]. The test is classed as functional.
The target in test [5] is T1, Mu-type opioid receptor. Put plainly: HTS Image-Based Screen for Agonists of the MOR Receptor. [Related pubchem assays (depositor defined):AID1777, AID1785, AID1786, AID2133]. The test is classed as functional.
Test [6] deals with T2, Delta-type opioid receptor. Put plainly: HTS Image-Based Screen for Agonists of the DOR Receptor. [Related pubchem assays (depositor defined):AID1777, AID1786, AID2133]. The test is classed as functional.
Test [7] concerns the target T3, Kappa-type opioid receptor. The test is classed as functional.
The target in test [8] is T3, Kappa-type opioid receptor. The test is classed as functional. This is another data set of the same source.
Test [9] deals with Melanocortin receptor 4 (Homo sapiens, UniProt P32245). The test is classed as functional, cell-based.
For test [10], the target named is T4, Runt-related transcription factor 1/Core-binding factor subunit beta (Homo sapiens, UniProt Q01196+Q13951). Put plainly: inhibitors of RUNX1 Runt–CBFb-SMMHC binding, primary screen, biochemical, FRET, Cerulean-Runt, Venus-CBFb-SMMHC, uHTS (AID 1434).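 Further: partner is the CBFb-SMMHC leukemia fusion protein rather than wild-type CBFb.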 The test is classed as protein assay.
Test [11] has as its target T4, Runt-related transcription factor 1/Core-binding factor subunit beta. In words: inhibitors of RUNX1 Runt–CBFb-SMMHC binding, biochemical, TR-FRET (AID 1438). The test is classed as protein assay. In general terms: Time-resolved FRET reads energy transfer from a long-lived donor to a nearby acceptor.
Test [12] has as its target T5, Hexokinase HKDC1 (Homo sapiens, UniProt Q2TB90).
T5 sequence (Q2TB90 whole entry): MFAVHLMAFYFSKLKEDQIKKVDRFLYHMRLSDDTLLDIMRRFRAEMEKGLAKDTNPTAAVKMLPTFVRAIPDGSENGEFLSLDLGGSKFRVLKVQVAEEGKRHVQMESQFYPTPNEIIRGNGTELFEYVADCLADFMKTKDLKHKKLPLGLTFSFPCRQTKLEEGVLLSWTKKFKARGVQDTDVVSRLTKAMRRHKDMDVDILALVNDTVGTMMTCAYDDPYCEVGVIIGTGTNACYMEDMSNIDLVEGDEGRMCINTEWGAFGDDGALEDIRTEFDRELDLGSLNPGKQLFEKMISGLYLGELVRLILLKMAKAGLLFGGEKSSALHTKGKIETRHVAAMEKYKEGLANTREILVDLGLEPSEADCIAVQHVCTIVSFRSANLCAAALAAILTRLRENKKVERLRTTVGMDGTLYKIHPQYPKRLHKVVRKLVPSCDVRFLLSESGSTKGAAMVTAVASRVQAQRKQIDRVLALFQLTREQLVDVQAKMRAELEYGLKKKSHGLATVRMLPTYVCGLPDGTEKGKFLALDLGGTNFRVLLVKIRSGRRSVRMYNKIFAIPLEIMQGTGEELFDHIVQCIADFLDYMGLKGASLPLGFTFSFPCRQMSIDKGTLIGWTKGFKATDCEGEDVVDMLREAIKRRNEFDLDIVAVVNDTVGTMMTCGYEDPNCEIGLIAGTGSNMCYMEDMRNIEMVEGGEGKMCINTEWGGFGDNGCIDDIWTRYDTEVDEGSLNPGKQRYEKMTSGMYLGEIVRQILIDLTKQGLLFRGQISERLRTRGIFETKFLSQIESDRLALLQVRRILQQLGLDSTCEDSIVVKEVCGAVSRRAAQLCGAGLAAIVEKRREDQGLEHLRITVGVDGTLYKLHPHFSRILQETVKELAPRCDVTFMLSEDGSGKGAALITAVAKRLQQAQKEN
In words: HKDC1 hexokinase inhibitors, dose response, biochemical, W721R variant (AID 504729). The test is classed as functional.

The target in test [13] is T6, Polyadenylate-binding protein 1 (Homo sapiens, UniProt P11940). Put plainly: PABP1 MLLE–PAM2 interaction inhibitors, dose response, miRNA deadenylation inhibitor project, biochemical, fluorescence polarization, Cy5-PAM2 peptide, secondary (AID 602260). The following applies: read-out: IC50_Mean. The test is classed as functional. Background: Fluorescence polarisation rises when a labelled molecule tumbles more slowly, as on binding a larger partner.

The target in test [14] is T6, Polyadenylate-binding protein 1. In words: PABP1 MLLE–PAM2 binding inhibitor potency, dose response, biochemical, fluorescence polarization, FITC-PAM2 peptide (AID 602259). The test is classed as functional. The following applies: read-out: IC50_Mean.
Test [15] has as its target Protein Tat (Human immunodeficiency virus type 1 group M subtype B (isolate HXB2)(HIV-1), UniProt P04608). The test is classed as functional.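 Further: tat binding to TAR RNA read out by fluorescence polarization.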
Test [16] deals with Ion channel NompC (Danio rerio, UniProt Q7T1G6). In words: Dose response cell-based high-throughput screening assay for agonists of the transient receptor potential channel N1 (TRPN1). [Related pubchem assays (depositor defined):AID1424, AID1448]. The test is classed as functional.
Test [17] addresses Mucolipin-3 (Homo sapiens, UniProt Q8TDD5). In words: Fluorescence counterscreen assay for […] agonists: dose response cell-based high-throughput screening assay to identify agonists of the transient receptor potential channel ML3 (TRPML3). [Related pubchem assays: 1424, 1448 ]. The test is classed as functional.
A short description of test [18]: cytotoxicity in HEK-293T cells, dose response, cytotoxicity control for TCR NF-kB inhibitor project, luminescence, T-cell screen hits (AID 489026).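 Further: cells exposed to compound about 14 hours before the viability readout.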 The test is classed as functional, cell-based.
In test [19] the target is T7, Coagulation factor XII (Homo sapiens, UniProt P00748).
T7 sequence (P00748 whole entry): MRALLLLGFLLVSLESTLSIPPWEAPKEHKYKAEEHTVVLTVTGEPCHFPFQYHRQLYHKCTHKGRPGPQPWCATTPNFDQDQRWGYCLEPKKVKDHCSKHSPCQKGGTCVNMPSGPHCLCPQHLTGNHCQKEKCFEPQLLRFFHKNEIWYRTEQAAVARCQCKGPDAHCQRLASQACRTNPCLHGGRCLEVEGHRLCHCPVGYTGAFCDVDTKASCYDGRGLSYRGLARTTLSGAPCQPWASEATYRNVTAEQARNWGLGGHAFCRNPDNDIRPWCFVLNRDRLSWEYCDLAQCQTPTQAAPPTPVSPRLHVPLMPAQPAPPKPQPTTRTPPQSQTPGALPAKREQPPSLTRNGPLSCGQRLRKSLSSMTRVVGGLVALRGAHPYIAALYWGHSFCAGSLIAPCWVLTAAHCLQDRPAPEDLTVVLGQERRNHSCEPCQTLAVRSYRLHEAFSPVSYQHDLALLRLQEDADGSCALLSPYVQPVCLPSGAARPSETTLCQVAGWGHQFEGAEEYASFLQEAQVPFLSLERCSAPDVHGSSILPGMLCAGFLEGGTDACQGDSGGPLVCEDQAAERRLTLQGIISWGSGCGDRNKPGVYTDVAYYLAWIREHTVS
Put plainly: Factor XIIa Dose Response Confirmation from Single Well HTS. [Related pubchem assays (depositor defined):AID701]. The test is classed as functional.

For test [20], the target named is Genome polyprotein (dengue virus type 2, UniProt P29990). Put plainly: Dengue-2 NS5 methyltransferase inhibitors, primary screen, biochemical, confirmation dose response (AID 588689). The test is classed as functional.

pEC50: −log10 of the molar value. Active and inactive are the calls of the source.

T2 sequence (P41143 whole entry): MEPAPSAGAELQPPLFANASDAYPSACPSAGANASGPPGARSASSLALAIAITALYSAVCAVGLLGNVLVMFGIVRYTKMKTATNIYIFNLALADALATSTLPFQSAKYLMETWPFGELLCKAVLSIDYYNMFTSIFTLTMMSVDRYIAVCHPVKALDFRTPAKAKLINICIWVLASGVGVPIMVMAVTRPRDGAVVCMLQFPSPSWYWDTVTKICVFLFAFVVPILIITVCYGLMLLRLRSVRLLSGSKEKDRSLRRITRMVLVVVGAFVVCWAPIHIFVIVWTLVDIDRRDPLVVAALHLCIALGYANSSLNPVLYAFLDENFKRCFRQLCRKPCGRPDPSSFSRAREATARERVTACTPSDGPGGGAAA
T3 sequence (P41145 whole entry): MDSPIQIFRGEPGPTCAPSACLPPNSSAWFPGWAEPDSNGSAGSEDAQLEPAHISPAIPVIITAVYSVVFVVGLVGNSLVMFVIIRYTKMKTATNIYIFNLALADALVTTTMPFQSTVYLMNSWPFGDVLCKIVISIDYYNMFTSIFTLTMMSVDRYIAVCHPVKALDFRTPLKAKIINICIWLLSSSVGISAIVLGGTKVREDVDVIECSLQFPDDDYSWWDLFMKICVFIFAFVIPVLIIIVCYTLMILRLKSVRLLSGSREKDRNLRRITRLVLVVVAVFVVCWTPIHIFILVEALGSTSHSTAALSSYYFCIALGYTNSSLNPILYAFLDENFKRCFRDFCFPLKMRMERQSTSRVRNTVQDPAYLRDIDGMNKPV
T6 sequence (P11940 whole entry): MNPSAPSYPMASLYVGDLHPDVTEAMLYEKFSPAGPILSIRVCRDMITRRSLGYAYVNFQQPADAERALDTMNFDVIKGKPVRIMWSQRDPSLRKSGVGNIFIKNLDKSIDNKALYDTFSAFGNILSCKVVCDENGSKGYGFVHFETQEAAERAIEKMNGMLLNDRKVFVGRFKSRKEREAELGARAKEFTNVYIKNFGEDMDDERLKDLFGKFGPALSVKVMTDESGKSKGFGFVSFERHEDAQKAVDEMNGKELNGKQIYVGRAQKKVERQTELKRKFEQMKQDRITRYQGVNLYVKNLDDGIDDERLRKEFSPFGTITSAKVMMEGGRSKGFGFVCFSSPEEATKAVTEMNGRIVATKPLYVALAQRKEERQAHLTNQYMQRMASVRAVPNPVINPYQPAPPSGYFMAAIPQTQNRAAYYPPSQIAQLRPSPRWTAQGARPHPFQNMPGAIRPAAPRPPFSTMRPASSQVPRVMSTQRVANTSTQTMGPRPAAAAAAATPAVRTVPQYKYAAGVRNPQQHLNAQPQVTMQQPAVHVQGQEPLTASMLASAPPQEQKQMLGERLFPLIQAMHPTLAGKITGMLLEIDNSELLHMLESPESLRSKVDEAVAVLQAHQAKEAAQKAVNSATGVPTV
T1 sequence (P35372 whole entry): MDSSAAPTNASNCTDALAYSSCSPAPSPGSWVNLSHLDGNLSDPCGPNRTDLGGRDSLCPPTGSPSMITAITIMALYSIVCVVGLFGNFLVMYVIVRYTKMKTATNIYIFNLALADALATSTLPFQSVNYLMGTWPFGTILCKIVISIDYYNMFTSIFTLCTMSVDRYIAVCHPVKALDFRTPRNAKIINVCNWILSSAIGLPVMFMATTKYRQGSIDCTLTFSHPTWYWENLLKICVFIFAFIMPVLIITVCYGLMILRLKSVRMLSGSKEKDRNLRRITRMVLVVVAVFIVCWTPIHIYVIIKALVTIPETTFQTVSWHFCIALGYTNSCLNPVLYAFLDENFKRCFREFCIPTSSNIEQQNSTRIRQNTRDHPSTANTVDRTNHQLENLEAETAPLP
T4 sequence (Q01196 whole entry, the tested form may be a part): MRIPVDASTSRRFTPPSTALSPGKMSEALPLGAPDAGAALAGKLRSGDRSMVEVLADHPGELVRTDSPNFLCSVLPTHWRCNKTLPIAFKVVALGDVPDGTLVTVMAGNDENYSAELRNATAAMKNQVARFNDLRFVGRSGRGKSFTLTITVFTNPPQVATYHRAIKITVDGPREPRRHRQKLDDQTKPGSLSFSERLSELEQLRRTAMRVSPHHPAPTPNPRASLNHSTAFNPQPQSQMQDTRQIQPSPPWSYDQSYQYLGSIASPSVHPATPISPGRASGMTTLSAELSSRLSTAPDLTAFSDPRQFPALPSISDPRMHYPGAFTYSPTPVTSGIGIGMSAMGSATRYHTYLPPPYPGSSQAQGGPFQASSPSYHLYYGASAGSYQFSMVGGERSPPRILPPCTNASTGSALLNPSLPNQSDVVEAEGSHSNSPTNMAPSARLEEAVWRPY
T4 sequence (Q13951 whole entry, the tested form may be a part): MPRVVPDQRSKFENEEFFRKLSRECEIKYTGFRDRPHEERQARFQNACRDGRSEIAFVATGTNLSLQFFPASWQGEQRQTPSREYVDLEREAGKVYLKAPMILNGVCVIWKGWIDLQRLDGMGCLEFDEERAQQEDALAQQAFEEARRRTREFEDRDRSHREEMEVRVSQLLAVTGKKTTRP
Protein Tat, sequence (P04608 whole entry): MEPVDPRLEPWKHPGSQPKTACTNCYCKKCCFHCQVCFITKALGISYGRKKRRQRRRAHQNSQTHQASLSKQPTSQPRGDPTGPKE
Mucolipin-3, sequence (Q8TDD5 whole entry): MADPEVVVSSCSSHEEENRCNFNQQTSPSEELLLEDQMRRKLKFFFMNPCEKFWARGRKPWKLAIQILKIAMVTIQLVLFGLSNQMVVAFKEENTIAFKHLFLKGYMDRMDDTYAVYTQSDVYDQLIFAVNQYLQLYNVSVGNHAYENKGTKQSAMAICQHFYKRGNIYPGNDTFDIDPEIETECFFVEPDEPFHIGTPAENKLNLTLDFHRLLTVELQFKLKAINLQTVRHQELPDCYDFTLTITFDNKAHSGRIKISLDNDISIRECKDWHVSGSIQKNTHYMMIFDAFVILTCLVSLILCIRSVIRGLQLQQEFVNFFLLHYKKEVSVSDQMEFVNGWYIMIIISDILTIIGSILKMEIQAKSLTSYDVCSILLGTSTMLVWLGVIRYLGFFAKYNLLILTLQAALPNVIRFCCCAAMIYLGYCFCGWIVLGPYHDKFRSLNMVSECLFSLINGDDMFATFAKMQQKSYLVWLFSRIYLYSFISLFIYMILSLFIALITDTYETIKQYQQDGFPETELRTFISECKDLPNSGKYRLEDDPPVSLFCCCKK
Ion channel NompC, sequence (Q7T1G6 whole entry): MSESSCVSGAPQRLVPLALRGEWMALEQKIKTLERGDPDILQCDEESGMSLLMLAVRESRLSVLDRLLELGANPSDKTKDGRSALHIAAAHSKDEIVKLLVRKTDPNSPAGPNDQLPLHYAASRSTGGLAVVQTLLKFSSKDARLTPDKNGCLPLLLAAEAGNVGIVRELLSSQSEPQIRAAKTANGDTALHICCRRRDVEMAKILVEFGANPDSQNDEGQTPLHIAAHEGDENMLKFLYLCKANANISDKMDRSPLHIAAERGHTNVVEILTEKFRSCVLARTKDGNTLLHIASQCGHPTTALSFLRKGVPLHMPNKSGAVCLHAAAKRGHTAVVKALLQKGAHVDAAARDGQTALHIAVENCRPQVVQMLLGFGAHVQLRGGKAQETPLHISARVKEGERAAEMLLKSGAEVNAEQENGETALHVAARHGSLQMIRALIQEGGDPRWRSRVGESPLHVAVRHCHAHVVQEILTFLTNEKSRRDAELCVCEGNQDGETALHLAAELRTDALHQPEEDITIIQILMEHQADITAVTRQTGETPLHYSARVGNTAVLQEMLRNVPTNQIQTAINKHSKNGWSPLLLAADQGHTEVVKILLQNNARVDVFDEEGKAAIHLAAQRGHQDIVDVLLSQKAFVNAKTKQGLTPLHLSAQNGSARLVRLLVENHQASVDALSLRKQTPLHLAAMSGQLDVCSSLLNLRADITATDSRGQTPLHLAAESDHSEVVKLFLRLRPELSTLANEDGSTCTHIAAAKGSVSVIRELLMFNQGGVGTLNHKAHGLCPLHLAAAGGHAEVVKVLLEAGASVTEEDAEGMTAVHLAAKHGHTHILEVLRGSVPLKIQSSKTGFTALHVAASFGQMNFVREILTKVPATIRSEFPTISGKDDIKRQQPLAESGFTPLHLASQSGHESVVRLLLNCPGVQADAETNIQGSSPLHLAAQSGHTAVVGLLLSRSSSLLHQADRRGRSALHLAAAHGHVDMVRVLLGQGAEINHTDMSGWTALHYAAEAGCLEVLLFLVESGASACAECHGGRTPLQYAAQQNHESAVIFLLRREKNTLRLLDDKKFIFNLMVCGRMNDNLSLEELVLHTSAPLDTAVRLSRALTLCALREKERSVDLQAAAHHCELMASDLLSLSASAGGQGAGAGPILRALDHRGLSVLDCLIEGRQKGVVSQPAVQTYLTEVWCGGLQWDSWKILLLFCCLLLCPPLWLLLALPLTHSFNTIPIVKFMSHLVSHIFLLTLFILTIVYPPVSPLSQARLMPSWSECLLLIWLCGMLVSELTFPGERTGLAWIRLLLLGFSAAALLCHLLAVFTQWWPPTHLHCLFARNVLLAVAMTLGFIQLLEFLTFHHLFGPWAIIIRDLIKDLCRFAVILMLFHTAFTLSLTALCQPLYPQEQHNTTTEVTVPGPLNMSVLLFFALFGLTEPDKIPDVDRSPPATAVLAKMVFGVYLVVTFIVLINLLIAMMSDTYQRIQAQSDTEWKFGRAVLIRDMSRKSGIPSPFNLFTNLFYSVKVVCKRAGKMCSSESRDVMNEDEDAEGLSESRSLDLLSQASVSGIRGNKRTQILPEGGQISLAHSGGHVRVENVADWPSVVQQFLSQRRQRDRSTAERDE

As usually defined, the EC50 is the concentration needed to bring the measured effect to its halfway point. Take `Cc1ccccc1CSc1nnc(-c2ccccn2)n1Cc1cccs1`: the EC50 in test [1] was > 32 µM (inactive); in [2], > 32 µM (inactive); in test [3], 14.7 µM (inactive).
A word on the pEC50: it is the EC50 on a negative log10 scale, so that one unit is a factor of ten. With `Nc1ccc(C2(c3ccc(N)cc3)c3ccccc3-c3ccccc32)cc1`, in test [4], the IC50 is > 32 µM (inactive). Also, the EC50 was > 32 µM (inactive) in test [5], > 32 µM (inactive) in [6] and > 89.2 µM (inactive) in [9]. The figures for the pEC50 in test [7] and in test [8] were under 4.46 and 5.08, respectively.
Regarding `COc1ccc(N2C3=C(CC4=C2CCCC4=O)C(=O)CCC3)cc1`, the IC50 in test [10] is 0.372 µM (active); in test [11], 17.7 µM (active); in [12] it was 8.05 µM (active); in test [13], > 66 µM (inactive); in [14] it was > 66 µM (inactive); in test [15], > 100 µM (active).
In the case of `O=C(Nc1ccc(S(=O)(=O)Nc2ccccc2)cc1)c1ccc(CN2CCOCC2)cc1`, the EC50 in test [16] is > 29.9 µM (inactive); in [17] it was > 29.9 µM (not active). In test [18], the IC50 was 48.1 µM (inactive).
As to `O=C1C(Cl)=C(N2CCOCC2)C(=O)N1c1ccccc1`, the IC50 in test [19] was > 50 µM (inactive); in test [20], 18.7 µM (active).
